Tests used:
[1] = system: Puccinia recondita f. Sp. Tritici; assay: Fungicidal activity, wheat leaf disc preventative (brown rust); format: in vivo; conditions: foliar, 200 ppm in the applied formulation, wheat leaf segments cv. Kanzler, compared to untreated control, 7 to 9 days after application, read-out: disease control
In short: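 Preventative leaf-segment test: spray application of diluted formulated compound on wheat cv. Kanzler, spore inoculation after 1 day. Percent control relative to untreated segments rated 7 to 9 days post-application, with incubation at 19° C, 75% relative humidity, 12 h photoperiod.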

[2] = system: Glomerella lacenarium (Colletotrichum lacenarium); assay: Fungicidal activity, liquid culture, cucumber preventative (anthracnose); format: cell-based; conditions: 20 ppm in the applied formulation, liquid culture in PDB, inhibition of growth measured photometrically 3 to 4 days after application, compared to untreated control, read-out: disease control
In short: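 Photometric read-out of fungal growth 3 to 4 days after application, expressed as percent control relative to untreated wells. Plates held at 24 °C. Compound placed in DMSO before adding PDB broth seeded with conidia from cryogenic storage.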

Phakopsora pachyrhizi = assay: Fungicidal activity, soybean leaf disc preventative (Asian soybean rust); format: in vivo; conditions: foliar, 200 ppm in the applied formulation, soybean leaf disks, compared to untreated control, 12 to 14 days after application, read-out: disease control
In short: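 Read-out is percent disease control relative to untreated check discs, assessed once untreated discs show adequate disease, 12 to 14 days after application. Compounds, tested at 200 ppm in the applied formulation, are sprayed onto soybean leaf discs one day before inoculation with a spore suspension.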

[3] = system: Puccinia recondita f. Sp. Tritici; assay: Fungicidal activity, wheat leaf disc curative (brown rust); format: in vivo; conditions: foliar, 200 ppm in the applied formulation, wheat leaf segments cv. Kanzler, curative (applied 1 day after inoculation), compared to untreated control, 6 to 8 days after application, read-out: disease control
In short: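 Compound applied 1 day after spore inoculation of wheat cv. Kanzler leaf segments on agar (dark, 19 °C, 75% RH before treatment). After further incubation under 12 h light/12 h dark at 19 °C and 75% RH, disease control relative to untreated segments rated 6–8 days post-application.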

With `CNC(=O)N(Cc1ccc(-c2noc(C(F)(F)F)n2)s1)OC` [Compound 1.2, 1-methoxy-3-methyl-1-[[5-[5-(trifluoromethyl)-1,2,4-oxadiazol-3-yl]-2-thienyl]methyl]urea] the pest or weed control at 200 ppm [1] was at least 80%, the inhibition of growth at 20 ppm [2] was at least 80% and the pest or weed control at 200 ppm (Phakopsora pachyrhizi) was at least 80%. It also gave a pest or weed control at 200 ppm [3] of at least 80% and a melting point of 93.2 to 95.7 °C.

In the case of `CON(Cc1ccc(-c2noc(C(F)(F)F)n2)s1)C(=O)NC1CC1` [Compound 1.27, 3-cyclopropyl-1-methoxy-1-[[5-[5-(trifluoromethyl)-1,2,4-oxadiazol-3-yl]-2-thienyl]methyl]urea], the pest or weed control at 200 ppm [1] is reported as at least 80%, the inhibition of growth at 20 ppm [2] is reported as at least 80% and the pest or weed control at 200 ppm (Phakopsora pachyrhizi) is reported as at least 80%. For the same molecule, the pest or weed control at 200 ppm [3] was at least 80% and the melting point was 82.2 to 83.8 °C.

Work on `O=C(C1CC1)N(Cc1ccc(-c2noc(C(F)(F)F)n2)s1)C1CC1` [Compound 5.2, N-cyclopropyl-N-[[5-[5-(trifluoromethyl)-1,2,4-oxadiazol-3-yl]-2-thienyl]methyl]cyclopropanecarboxamide] yielded a pest or weed control at 200 ppm [1] of at least 80%, an inhibition of growth at 20 ppm [2] of at least 80% and a pest or weed control at 200 ppm (Phakopsora pachyrhizi) of at least 80%. The pest or weed control at 200 ppm [3] was at least 80%.

`CCN(Cc1ccc(-c2noc(C(F)(F)F)n2)s1)C(=O)NC1CC1` [Compound 5.3, 3-cyclopropyl-1-ethyl-1-[[5-[5-(trifluoromethyl)-1,2,4-oxadiazol-3-yl]-2-thienyl]methyl]urea] gave a pest or weed control at 200 ppm [1] of at least 80%, an inhibition of growth at 20 ppm [2] of at least 80% and a pest or weed control at 200 ppm (Phakopsora pachyrhizi) of at least 80%. The pest or weed control at 200 ppm [3] was at least 80%.

`CCN(Cc1ccc(-c2noc(C(F)(F)F)n2)s1)C(=O)C1CC1` [Compound 5.4, N-ethyl-N-[[5-[5-(trifluoromethyl)-1,2,4-oxadiazol-3-yl]-2-thienyl]methyl]cyclopropanecarboxamide] gave a pest or weed control at 200 ppm [1] of at least 80%, an inhibition of growth at 20 ppm [2] of at least 80% and a pest or weed control at 200 ppm (Phakopsora pachyrhizi) of at least 80%. It also gave a pest or weed control at 200 ppm [3] of at least 80%.

`CC(C)N(Cc1ccc(-c2noc(C(F)(F)F)n2)s1)C(=O)C1CC1` [Compound 5.5, N-isopropyl-N-[[5-[5-(trifluoromethyl)-1,2,4-oxadiazol-3-yl]-2-thienyl]methyl]cyclopropanecarboxamide] showed a pest or weed control at 200 ppm [1] of at least 80%, an inhibition of growth at 20 ppm [2] of at least 80% and a pest or weed control at 200 ppm (Phakopsora pachyrhizi) of at least 80%. It also gave a pest or weed control at 200 ppm [3] of at least 80%.

`CN(Cc1ccc(-c2noc(C(F)(F)F)n2)s1)C(=O)NC1CC1` [Compound 5.6, 3-cyclopropyl-1-methyl-1-[[5-[5-(trifluoromethyl)-1,2,4-oxadiazol-3-yl]-2-thienyl]methyl]urea] gave a pest or weed control at 200 ppm [1] of at least 80%, an inhibition of growth at 20 ppm [2] of at least 80% and a pest or weed control at 200 ppm (Phakopsora pachyrhizi) of at least 80%. For the same molecule, the pest or weed control at 200 ppm [3] was at least 80%.

Molecule `CCN(Cc1ccc(-c2noc(C(F)(F)F)n2)s1)C(=O)C1(C)COC1` [Compound 5.14, N-ethyl-3-methyl-N-[[5-(5-(trifluoromethyl)-1,2,4-oxadiazol-3-yl]-2-thienyl]methyl]oxetane-3-carboxamide] has a pest or weed control at 200 ppm [1] of at least 80%, an inhibition of growth at 20 ppm [2] of at least 80% and a pest or weed control at 200 ppm (Phakopsora pachyrhizi) of at least 80%. For the same molecule, the pest or weed control at 200 ppm [3] was at least 80%.

For `CCN(Cc1ccc(-c2noc(C(F)(F)F)n2)s1)C(=O)C1CC1C` (centres unmarked) [Compound 5.16, N-ethyl-2-methyl-N-[[5-[5-(trifluoromethyl)-1,2,4-oxadiazol-3-yl]-2-thienyl]methyl]cyclopropanecarboxamide], the pest or weed control at 200 ppm [1] was at least 80%, the inhibition of growth at 20 ppm [2] was at least 80% and the pest or weed control at 200 ppm (Phakopsora pachyrhizi) was at least 80%. For the same molecule, the pest or weed control at 200 ppm [3] was at least 80%.

Work on `CN(Cc1ccc(-c2noc(C(F)(F)F)n2)s1)C(=O)CC1CC1` [Compound 5.18, 2-cyclopropyl-N-methyl-N-[[5-[5-(trifluoromethyl)-1,2,4-oxadiazol-3-yl]-2-thienyl]methyl]acetamide] yielded a pest or weed control at 200 ppm [1] of at least 80%, an inhibition of growth at 20 ppm [2] of at least 80% and a pest or weed control at 200 ppm (Phakopsora pachyrhizi) of at least 80%. It also gave a pest or weed control at 200 ppm [3] of at least 80%.

For `CN(Cc1ccc(-c2noc(C(F)(F)F)n2)s1)C(=O)C1CCC1` [Compound 5.20, N-methyl-N-[[5-[5-(trifluoromethyl)-1,2,4-oxadiazol-3-yl]-2-thienyl]methyl]cyclobutanecarboxamide], the pest or weed control at 200 ppm [1] was at least 80%, the inhibition of growth at 20 ppm [2] was at least 80% and the pest or weed control at 200 ppm (Phakopsora pachyrhizi) was at least 80%. For the same molecule, the pest or weed control at 200 ppm [3] was at least 80%.

Molecule `CN(Cc1ccc(-c2noc(C(F)(F)F)n2)s1)C(=O)C1(C)CC1` [Compound 5.21, N,1-dimethyl-N-[[5-[5-(trifluoromethyl)-1,2,4-oxadiazol-3-yl]-2-thienyl]methyl]cyclopropanecarboxamide] has a pest or weed control at 200 ppm [1] of at least 80%, an inhibition of growth at 20 ppm [2] of at least 80% and a pest or weed control at 200 ppm (Phakopsora pachyrhizi) of at least 80%. It also gave a pest or weed control at 200 ppm [3] of at least 80%.

For `CN(Cc1ccc(-c2noc(C(F)(F)F)n2)s1)C(=O)C1CC1(F)F` (centres unmarked) [Compound 5.24, 2,2-difluoro-N-methyl-N-[[5-[5-(trifluoromethyl)-1,2,4-oxadiazol-3-yl]-2-thienyl]methyl]cyclopropanecarboxamide], the pest or weed control at 200 ppm [1] was at least 80%, the inhibition of growth at 20 ppm [2] was at least 80% and the pest or weed control at 200 ppm (Phakopsora pachyrhizi) was at least 80%. The pest or weed control at 200 ppm [3] was at least 80%.

In the case of `CC1CC1C(=O)N(C)Cc1ccc(-c2noc(C(F)(F)F)n2)s1` (centres unmarked) [Compound 5.25, N,2-dimethyl-N-[[5-[5-(trifluoromethyl)-1,2,4-oxadiazol-3-yl]-2-thienyl]methyl]cyclopropanecarboxamide], the pest or weed control at 200 ppm [1] is reported as at least 80%, the inhibition of growth at 20 ppm [2] is reported as at least 80% and the pest or weed control at 200 ppm (Phakopsora pachyrhizi) is reported as at least 80%. For the same molecule, the pest or weed control at 200 ppm [3] was at least 80%.

`O=C(NC1CC1)N(Cc1ccc(-c2noc(C(F)(F)F)n2)s1)C1CC1` [Compound 5.62, 1,3-dicyclopropyl-1-[[5-[5-(trifluoromethyl)-1,2,4-oxadiazol-3-yl]-2-thienyl]methyl]urea] showed a pest or weed control at 200 ppm [1] of at least 80%, an inhibition of growth at 20 ppm [2] of at least 80% and a pest or weed control at 200 ppm (Phakopsora pachyrhizi) of at least 80%. For the same molecule, the pest or weed control at 200 ppm [3] was at least 80%.

Molecule `O=C(NC1CC1)N(Cc1ccc(-c2noc(C(F)(F)F)n2)s1)OCC(F)F` [Compound 5.65, 3-cyclopropyl-1-(2,2-difluoroethoxy)-1-[[5-[5-(trifluoromethyl)-1,2,4-oxadiazol-3-yl]-2-thienyl]methyl]urea] has a pest or weed control at 200 ppm [1] of at least 80%, an inhibition of growth at 20 ppm [2] of at least 80% and a pest or weed control at 200 ppm (Phakopsora pachyrhizi) of at least 80%. For the same molecule, the pest or weed control at 200 ppm [3] was at least 80%.

Work on `CCN(Cc1ccc(-c2noc(C(F)(F)F)n2)s1)C(=O)C(N)=O` [Compound 6.5, N′-ethyl-N′-[[5-[5-(trifluoromethyl)-1,2,4-oxadiazol-3-yl]-2-thienyl]methyl]oxamide] yielded a pest or weed control at 200 ppm [1] of at least 80%, an inhibition of growth at 20 ppm [2] of at least 80% and a pest or weed control at 200 ppm (Phakopsora pachyrhizi) of at least 80%. For the same molecule, the pest or weed control at 200 ppm [3] was at least 80%.

In the case of `CN(Cc1ccc(-c2noc(C(F)(F)F)n2)s1)C(=O)C(N)=O` [Compound 6.7, N′-methyl-N′-[[5-[5-(trifluoromethyl)-1,2,4-oxadiazol-3-yl]-2-thienyl]methyl]oxamide], the pest or weed control at 200 ppm [1] is reported as at least 80%, the inhibition of growth at 20 ppm [2] is reported as at least 80% and the pest or weed control at 200 ppm (Phakopsora pachyrhizi) is reported as at least 80%. For the same molecule, the pest or weed control at 200 ppm [3] was at least 80%.

Work on `NC(=O)C(=O)N(Cc1ccc(-c2noc(C(F)(F)F)n2)s1)C1CC1` [Compound 6.10, N′-cyclopropyl-N′-[[5-[5-(trifluoromethyl)-1,2,4-oxadiazol-3-yl]-2-thienyl]methyl]oxamide] yielded a pest or weed control at 200 ppm [1] of at least 80%, an inhibition of growth at 20 ppm [2] of at least 80% and a pest or weed control at 200 ppm (Phakopsora pachyrhizi) of at least 80%. It also gave a pest or weed control at 200 ppm [3] of at least 80%.

Molecule `CCN(Cc1ccc(-c2noc(C(F)(F)F)n2)s1)S(C)(=O)=O` [Compound 6.16, N-ethyl-N-[[5-[5-(trifluoromethyl)-1,2,4-oxadiazol-3-yl]-2-thienyl]methyl]methanesulfonamide] has a pest or weed control at 200 ppm [1] of at least 80%, an inhibition of growth at 20 ppm [2] of at least 80% and a pest or weed control at 200 ppm (Phakopsora pachyrhizi) of at least 80%. It also gave a pest or weed control at 200 ppm [3] of at least 80%.

`COCCS(=O)(=O)N(C)Cc1ccc(-c2noc(C(F)(F)F)n2)s1` [Compound 6.21, 2-methoxy-N-methyl-N-[[5-[5-(trifluoromethyl)-1,2,4-oxadiazol-3-yl]-2-thienyl]methyl]ethanesulfonamide] gave a pest or weed control at 200 ppm [1] of at least 80%, an inhibition of growth at 20 ppm [2] of at least 80% and a pest or weed control at 200 ppm (Phakopsora pachyrhizi) of at least 80%. It also gave a pest or weed control at 200 ppm [3] of at least 80%.
